Data taken from patent US8367715B2, “Pyrazole derivatives, preparation thereof, and therapeutic use thereof” (priority 2009, dated 2013).

Legend:
Type in all cases: biochemical
PDGFRβ = PDGFRβ (Homo sapiens, UniProt P09619); assay: PDGFR kinase phosphorylation activity by radioactive labeling; settings: read-out: PDGFRβ, concentration that inhibits 50% of the kinase activity
Protocol: 4. Screening of Molecules by Measuring, by Radioactive Labeling, the PDGFR Kinase Phosphorylation Activity in the Presence of PLCγ Substrate The test is carried out in a similar manner to that carried out with the FLT1 enzyme by using, instead of 13 nM of Flt1, 16 nM of PDGFR enzyme and mixed in the 96-well plates are 18 μl of GST-PDGFR enzyme at 4 mg/ml (for a purity of 80%) batch VLT802.

human Tie2 = molecular target: T1, human Tie2 (Homo sapiens, UniProt Q02763); assay: Tie2 kinase inhibition, phosphorylation of PLCγ substrate, scintillation Flash Plate; settings: read-out: Tie2, concentration that inhibits 50% of the kinase activity
T1 construct: human Tie2 corresponding to the amino acids of the intracellular domain 774-1124; made in house; host or cells: baculovirus expression (pFastBacGT)
T1 sequence (Q02763 774-1124): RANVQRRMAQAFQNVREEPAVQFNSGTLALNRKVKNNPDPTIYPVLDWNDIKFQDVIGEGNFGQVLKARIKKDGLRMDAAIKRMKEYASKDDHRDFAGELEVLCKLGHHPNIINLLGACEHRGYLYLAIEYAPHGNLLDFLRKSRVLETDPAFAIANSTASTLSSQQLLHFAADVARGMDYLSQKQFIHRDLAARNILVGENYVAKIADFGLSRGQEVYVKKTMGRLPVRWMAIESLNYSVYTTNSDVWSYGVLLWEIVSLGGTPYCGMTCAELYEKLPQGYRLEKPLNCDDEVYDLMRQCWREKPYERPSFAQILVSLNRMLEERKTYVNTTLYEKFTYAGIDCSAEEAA
Protocol: (§1) The inhibitory effect of the compounds is determined in an in vitro test of phosphorylation of substrate via a scintillation technique (96-well plate of basic Flash Plate type).
The coding sequence of human Tie2 corresponding to the amino acids of the intracellular domain 774-1124 was introduced into a pFastBacGT baculovirus expression vector in the form of a GST fusion protein. GST-Tie2 was purified and activated by autophosphorylation. The substrate is composed of residues 658 to 850 of the PLCγ expressed and purified in the form of a GST fusion protein.
The kinase activity of Tie2 is measured in a MOPS 20 mM pH 7.4 buffer, containing 10 mM MgCl2, 10 mM MnCl2 and 1 mM DTT. The compounds are initially diluted in 100% DMSO, then prepared as a 10× solution in 30% DMSO/70% buffer. […] The radioactivity in each well is measured using a Trilux-βWallac radioactivity counter.
(§2) The background noise is determined by measuring the radioactivity in four different wells containing ATP (radiolabeled and cold) and the substrate, in the absence of enzyme and of compound. The control activity is measured in four different wells containing all the reagents, but in the absence of compound.
The inhibition of the Tie2 activity is calculated and expressed as a percentage of inhibition relative to the control activity determined in the absence of compound.

FGFR1 = FGFR1 (Homo sapiens, UniProt P11362); assay: FGFR kinase phosphorylation activity by radioactive labeling; settings: read-out: FGFR1, concentration that inhibits 50% of the kinase activity
Chain of FGFR1 (P11362 22-822, species assumed): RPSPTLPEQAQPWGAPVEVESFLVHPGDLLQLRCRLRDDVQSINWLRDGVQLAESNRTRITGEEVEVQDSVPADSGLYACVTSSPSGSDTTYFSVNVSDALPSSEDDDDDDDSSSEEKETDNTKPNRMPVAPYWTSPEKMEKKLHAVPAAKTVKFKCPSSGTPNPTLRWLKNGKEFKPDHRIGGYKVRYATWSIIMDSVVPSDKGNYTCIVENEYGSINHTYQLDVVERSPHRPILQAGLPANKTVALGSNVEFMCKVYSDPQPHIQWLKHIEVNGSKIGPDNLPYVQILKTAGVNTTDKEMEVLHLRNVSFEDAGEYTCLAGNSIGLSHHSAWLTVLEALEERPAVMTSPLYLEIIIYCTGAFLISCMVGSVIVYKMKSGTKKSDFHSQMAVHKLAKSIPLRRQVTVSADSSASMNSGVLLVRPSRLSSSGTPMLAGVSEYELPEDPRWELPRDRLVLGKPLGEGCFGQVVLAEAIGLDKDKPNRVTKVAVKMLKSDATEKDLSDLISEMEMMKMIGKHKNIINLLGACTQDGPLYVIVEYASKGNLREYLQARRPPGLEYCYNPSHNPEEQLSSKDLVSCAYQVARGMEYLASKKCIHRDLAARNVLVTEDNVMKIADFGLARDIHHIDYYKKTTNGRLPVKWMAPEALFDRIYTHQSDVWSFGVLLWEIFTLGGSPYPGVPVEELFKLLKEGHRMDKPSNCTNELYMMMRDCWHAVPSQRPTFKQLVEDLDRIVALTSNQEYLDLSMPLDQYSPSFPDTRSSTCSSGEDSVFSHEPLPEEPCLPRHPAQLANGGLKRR
Protocol: 5. Screening of Molecules by Measuring, by Radioactive Labeling, the FGFR Kinase Phosphorylation Activity in the Presence of PLCγ Substrate
The test is carried out in a similar manner to that carried out with the FLT1 enzyme by using, instead of 13 nM of Flt1, 27 nM of FGFR enzyme and mixed in the 96-well plates are 18 μl of GST-FGFR enzyme at 1.1 mg/ml (for a purity of 100%): (batch JCE3666).

human KDR enzyme = molecular target: T2, human KDR enzyme (Homo sapiens, UniProt P35968); assay: KDR kinase inhibition, phosphorylation of PLCγ substrate, scintillation Flash Plate; settings: read-out: KDR, concentration that inhibits 50% of the kinase activity
T2 construct: The cytoplasmic domain (residues 790 to 1356) of the human KDR enzyme; GST; made in house; host or cells: SF21 insect cells (baculovirus, pFastBac)
T2 sequence (P35968 790-1356): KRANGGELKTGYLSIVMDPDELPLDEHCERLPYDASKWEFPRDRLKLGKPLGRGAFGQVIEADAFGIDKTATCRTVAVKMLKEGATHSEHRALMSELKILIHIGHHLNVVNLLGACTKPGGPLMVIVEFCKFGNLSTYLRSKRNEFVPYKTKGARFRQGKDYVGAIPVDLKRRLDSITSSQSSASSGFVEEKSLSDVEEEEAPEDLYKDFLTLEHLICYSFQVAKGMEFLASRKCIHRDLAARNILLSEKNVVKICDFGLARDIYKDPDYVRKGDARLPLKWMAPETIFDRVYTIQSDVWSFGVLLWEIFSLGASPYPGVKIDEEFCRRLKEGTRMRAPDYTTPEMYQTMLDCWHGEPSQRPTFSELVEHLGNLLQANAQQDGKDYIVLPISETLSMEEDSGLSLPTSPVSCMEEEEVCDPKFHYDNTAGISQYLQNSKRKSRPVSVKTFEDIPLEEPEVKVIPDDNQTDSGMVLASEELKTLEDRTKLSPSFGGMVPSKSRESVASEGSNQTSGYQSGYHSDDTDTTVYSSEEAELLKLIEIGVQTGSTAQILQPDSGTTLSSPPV
Protocol: as §1
The cytoplasmic domain (residues 790 to 1356) of the human KDR enzyme was cloned in the form of a GST fusion in the pFastBac baculovirus expression vector. The protein was expressed in the SF21 cells, purified and activated by autophosphorylation. The substrate is composed of residues 658 to 850 of the PLCγ expressed and purified in the form of a GST fusion protein.
The KDR kinase activity is measured in the buffer 20 mM MOPS, 10 mM MgCl2, 10 mM MnCl2, 1 mM DTT, pH=7.4. The compounds are initially diluted in 100% DMSO, then prepared as a 10× solution in 30% DMSO/70% buffer. […] The radioactivity in each well is measured using a Trilux-βWallac radioactivity counter.
as §2
The inhibition of the KDR activity with the compound of the invention is expressed as a percentage of inhibition of the control activity determined in the absence of compound.

Chain of PDGFRβ (P09619 33-1106, species assumed): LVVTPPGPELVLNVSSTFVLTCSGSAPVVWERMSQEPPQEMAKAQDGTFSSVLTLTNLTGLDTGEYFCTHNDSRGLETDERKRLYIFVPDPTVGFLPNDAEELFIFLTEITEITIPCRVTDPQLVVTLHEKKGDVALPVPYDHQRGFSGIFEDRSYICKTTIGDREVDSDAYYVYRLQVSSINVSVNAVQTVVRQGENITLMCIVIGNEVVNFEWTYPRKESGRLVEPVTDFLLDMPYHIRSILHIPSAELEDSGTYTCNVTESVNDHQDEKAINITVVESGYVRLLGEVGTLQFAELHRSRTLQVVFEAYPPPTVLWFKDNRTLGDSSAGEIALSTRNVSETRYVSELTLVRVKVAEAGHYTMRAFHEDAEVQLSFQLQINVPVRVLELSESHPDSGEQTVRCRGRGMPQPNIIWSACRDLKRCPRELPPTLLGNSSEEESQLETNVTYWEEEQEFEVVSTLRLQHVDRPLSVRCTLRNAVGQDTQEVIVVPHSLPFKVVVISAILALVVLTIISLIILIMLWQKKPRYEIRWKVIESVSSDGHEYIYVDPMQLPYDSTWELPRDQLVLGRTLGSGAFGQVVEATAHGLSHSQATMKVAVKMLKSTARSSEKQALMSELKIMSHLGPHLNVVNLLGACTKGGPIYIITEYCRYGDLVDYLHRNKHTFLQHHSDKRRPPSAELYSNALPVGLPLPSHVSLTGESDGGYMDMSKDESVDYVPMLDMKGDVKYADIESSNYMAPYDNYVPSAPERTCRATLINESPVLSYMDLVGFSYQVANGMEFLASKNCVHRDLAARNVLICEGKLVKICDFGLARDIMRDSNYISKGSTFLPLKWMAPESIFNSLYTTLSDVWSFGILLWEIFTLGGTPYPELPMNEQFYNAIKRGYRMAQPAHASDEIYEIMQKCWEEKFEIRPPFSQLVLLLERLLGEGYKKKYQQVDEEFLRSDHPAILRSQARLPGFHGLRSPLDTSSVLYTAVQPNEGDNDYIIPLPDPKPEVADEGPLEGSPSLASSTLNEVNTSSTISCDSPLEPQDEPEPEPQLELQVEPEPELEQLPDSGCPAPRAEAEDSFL

In the case of `Cl.NC(=O)c1n[nH]cc1NCc1cc(F)cc(NC(=O)Nc2ccc(C(F)(F)F)cc2Cl)c1` [Example 1, 4-{3-[3-(2-Chloro-4-trifluoromethylphenyl)ureido]-5-fluorobenzylamino}-1H-pyrazole-3-carboxamide hydrochloride], the IC50 (PDGFRβ) is reported as 11 nM, the IC50 (human Tie2) is reported as 36 nM and the IC50 (FGFR1) is reported as 54 nM. For the same compound, the IC50 (human KDR enzyme) was 3 nM.

`Cl.NC(=O)c1n[nH]cc1NCc1cc(F)cc(NC(=O)Nc2ccc(C(F)(F)F)cc2F)c1` [Example 2, 4-{3-[3-(2-Fluoro-4-trifluoromethylphenyl)ureido]-5-fluorobenzylamino}-1H-pyrazole-3-carboxamide hydrochloride] showed an IC50 (PDGFRβ) of 20 nM, an IC50 (human Tie2) of 39 nM and an IC50 (FGFR1) of 92 nM. It also gave an IC50 (human KDR enzyme) of 2 nM.
